From paper PMC5478271, “Chemical structure-guided design of dynapyrazoles, cell-permeable dynein inhibitors with a unique mode of action” (eLife, 2017)

Target: T1, human cytoplasmic dynein 2 (GFP-dynein 2, amino acids 1091–4307) (Homo sapiens, UniProt Q8NCM8)
T1 construct: (AA 1091–4307, uniprot: Q8NCM8); protein A tag (followed by TEV-cleavable linker) (N, cleaved yes); made in house; host or cells: Sf9 insect cells (baculovirus)
Assay: Microtubule gliding (motility) assay with GFP-dynein 2
Type: biochemical
Conditions: 0.05 mg/mL casein; for Velocity of dynein-2-driven microtubule gliding: 20 µM compound, solvent control 128 ± 14 nm/s, mean ± S.D.; for Velocity of dynein-2-driven microtubule gliding / IC50: 1 mM MgATP, 2% DMSO; for IC50: read-out: IC50, inhibition of GFP-dynein-2-driven motility
Description: We purified an N-terminally GFP-tagged motor-domain construct of dynein 2 using an insect cell expression system ([Schmidt et al., 2015]). The GFP tag in this construct (GFP-dynein 2, amino acids 1091–4307) allowed the motor protein to be immobilized on passivated glass coverslips used in microtubule gliding assays. GFP-dynein 2 was obtained as a mono-disperse peak by gel filtration (Figure 2D and E). In the presence of ATP (1 mM), this protein moved microtubules with a velocity of 128 ± 14 nm/s (mean ± SD, Figure 2G and I).
Reaction setup: A coverslip-based motility assay was adapted from similar assays reported previously ([Firestone et al., 2012]; [Schmidt et al., 2015]). A flow chamber assembled on a pre-cleaned microscope coverslide (3–5 µL chamber volume) was hydrated with buffer A (25 mM PIPES, 30 mM KCl, 5 mM MgCl2, 1 mM EGTA, 0.01% Triton X-100, 1 mM DTT, 20 µM taxol, pH 7.0 with KOH). Anti-GFP antibody (0.4 mg/mL, affinity purified rabbit antibody) was flowed into the chamber and allowed to adhere non-specifically to the glass for 20 s. The surface was blocked using 0.5 mg/mL α-casein in buffer A. Excess protein was then washed away with buffer A. GFP-dynein motor domain was diluted in buffer A supplemented with 1 mM DTT and 0.1 mM ATP (2 mM DTT final; GFP-dynein 2 diluted to: 180 nM; GFP-dynein 1 diluted to: 60 nM), flowed into the chamber and allowed to bind for 20 s. Excess protein was washed away with buffer A. Reaction mix (25 mM PIPES, 90 mM KCl, 6 mM MgCl2, 1 mM EGTA, 0.01% Triton X-100, 3 mM DTT, 20 µM taxol, 1 mM ATP, 1x oxygen scavenging system components [4.5 mg/mL glucose, 35 µg/mL catalase, 200 µg/mL glucose oxidase], 2% final DMSO [v/v] with compounds at appropriate concentrations, 0.05 mg/mL α-casein, microtubules [rhodamine labeled, purified from bovine brain, GMP-CPP and Taxol-stabilized], pH 7.0 with KOH) was flowed into the chamber using ~4 chamber volumes. For experiments shown in Figure 4—figure supplement 1, α-casein concentration in reaction mix was 0.5 mg/mL and all other parameters were held constant.
For reversibility experiments, motility in the presence of 5 µM 8 was observed as above, and upon completion of imaging, the chamber, fresh buffer A supplemented with 1 mM ATP was flowed into the chamber and incubated for 1 min; this wash and incubation cycle was repeated twice. Reaction mix containing DMSO (no compound) was flowed into the chamber using ~4 chamber volumes. The chamber was sealed with valap and returned to the microscope.
Microscopy conditions: Following addition of reaction mix, microtubules were allowed to bind for 5 min before imaging. For reversibility experiments, microtubules were allowed to bind for 10 min before imaging. Videos were taken on a Zeiss Axiovert 200M wide-field microscope equipped with a Zeiss 100x/1.45 NA α-Plan-Fluar objective. Data were captured with an EM-CCD camera (iXon DU-897, Andor Technology) with a 0.2 s exposure time and frame rate of 0.25–0.5/second. Four 10–20 s videos were captured per experimental condition. Velocities were measured using the kymograph tool in FIJI ([Schindelin et al., 2012]). Data analysis is discussed below under ‘General data analysis procedures.’
Microtubule velocity measurements: the tracks of microtubules were traced and converted to kymographs (x axis-displacement, y axis-time) using the kymograph function of FIJI (RRID: SCR_002285). The angle formed between an edge of a microtubule and the horizontal was measured. This angle, θ, was converted into velocity using the following relationship: velocity = 1/|tangent(θ)| * (unit pixel distance)/(time interval between frames).
The calibrated pixel distance was 0.152 µm and the time interval between frames was either 2 or 4 s. The velocities of at least seven microtubules were measured per field of view, if sufficient tracks could be found. In cases where fewer than seven microtubules were found in a field of view, velocities of all microtubules on the coverslip were measured. […]

T1 sequence (Q8NCM8 1091-4307): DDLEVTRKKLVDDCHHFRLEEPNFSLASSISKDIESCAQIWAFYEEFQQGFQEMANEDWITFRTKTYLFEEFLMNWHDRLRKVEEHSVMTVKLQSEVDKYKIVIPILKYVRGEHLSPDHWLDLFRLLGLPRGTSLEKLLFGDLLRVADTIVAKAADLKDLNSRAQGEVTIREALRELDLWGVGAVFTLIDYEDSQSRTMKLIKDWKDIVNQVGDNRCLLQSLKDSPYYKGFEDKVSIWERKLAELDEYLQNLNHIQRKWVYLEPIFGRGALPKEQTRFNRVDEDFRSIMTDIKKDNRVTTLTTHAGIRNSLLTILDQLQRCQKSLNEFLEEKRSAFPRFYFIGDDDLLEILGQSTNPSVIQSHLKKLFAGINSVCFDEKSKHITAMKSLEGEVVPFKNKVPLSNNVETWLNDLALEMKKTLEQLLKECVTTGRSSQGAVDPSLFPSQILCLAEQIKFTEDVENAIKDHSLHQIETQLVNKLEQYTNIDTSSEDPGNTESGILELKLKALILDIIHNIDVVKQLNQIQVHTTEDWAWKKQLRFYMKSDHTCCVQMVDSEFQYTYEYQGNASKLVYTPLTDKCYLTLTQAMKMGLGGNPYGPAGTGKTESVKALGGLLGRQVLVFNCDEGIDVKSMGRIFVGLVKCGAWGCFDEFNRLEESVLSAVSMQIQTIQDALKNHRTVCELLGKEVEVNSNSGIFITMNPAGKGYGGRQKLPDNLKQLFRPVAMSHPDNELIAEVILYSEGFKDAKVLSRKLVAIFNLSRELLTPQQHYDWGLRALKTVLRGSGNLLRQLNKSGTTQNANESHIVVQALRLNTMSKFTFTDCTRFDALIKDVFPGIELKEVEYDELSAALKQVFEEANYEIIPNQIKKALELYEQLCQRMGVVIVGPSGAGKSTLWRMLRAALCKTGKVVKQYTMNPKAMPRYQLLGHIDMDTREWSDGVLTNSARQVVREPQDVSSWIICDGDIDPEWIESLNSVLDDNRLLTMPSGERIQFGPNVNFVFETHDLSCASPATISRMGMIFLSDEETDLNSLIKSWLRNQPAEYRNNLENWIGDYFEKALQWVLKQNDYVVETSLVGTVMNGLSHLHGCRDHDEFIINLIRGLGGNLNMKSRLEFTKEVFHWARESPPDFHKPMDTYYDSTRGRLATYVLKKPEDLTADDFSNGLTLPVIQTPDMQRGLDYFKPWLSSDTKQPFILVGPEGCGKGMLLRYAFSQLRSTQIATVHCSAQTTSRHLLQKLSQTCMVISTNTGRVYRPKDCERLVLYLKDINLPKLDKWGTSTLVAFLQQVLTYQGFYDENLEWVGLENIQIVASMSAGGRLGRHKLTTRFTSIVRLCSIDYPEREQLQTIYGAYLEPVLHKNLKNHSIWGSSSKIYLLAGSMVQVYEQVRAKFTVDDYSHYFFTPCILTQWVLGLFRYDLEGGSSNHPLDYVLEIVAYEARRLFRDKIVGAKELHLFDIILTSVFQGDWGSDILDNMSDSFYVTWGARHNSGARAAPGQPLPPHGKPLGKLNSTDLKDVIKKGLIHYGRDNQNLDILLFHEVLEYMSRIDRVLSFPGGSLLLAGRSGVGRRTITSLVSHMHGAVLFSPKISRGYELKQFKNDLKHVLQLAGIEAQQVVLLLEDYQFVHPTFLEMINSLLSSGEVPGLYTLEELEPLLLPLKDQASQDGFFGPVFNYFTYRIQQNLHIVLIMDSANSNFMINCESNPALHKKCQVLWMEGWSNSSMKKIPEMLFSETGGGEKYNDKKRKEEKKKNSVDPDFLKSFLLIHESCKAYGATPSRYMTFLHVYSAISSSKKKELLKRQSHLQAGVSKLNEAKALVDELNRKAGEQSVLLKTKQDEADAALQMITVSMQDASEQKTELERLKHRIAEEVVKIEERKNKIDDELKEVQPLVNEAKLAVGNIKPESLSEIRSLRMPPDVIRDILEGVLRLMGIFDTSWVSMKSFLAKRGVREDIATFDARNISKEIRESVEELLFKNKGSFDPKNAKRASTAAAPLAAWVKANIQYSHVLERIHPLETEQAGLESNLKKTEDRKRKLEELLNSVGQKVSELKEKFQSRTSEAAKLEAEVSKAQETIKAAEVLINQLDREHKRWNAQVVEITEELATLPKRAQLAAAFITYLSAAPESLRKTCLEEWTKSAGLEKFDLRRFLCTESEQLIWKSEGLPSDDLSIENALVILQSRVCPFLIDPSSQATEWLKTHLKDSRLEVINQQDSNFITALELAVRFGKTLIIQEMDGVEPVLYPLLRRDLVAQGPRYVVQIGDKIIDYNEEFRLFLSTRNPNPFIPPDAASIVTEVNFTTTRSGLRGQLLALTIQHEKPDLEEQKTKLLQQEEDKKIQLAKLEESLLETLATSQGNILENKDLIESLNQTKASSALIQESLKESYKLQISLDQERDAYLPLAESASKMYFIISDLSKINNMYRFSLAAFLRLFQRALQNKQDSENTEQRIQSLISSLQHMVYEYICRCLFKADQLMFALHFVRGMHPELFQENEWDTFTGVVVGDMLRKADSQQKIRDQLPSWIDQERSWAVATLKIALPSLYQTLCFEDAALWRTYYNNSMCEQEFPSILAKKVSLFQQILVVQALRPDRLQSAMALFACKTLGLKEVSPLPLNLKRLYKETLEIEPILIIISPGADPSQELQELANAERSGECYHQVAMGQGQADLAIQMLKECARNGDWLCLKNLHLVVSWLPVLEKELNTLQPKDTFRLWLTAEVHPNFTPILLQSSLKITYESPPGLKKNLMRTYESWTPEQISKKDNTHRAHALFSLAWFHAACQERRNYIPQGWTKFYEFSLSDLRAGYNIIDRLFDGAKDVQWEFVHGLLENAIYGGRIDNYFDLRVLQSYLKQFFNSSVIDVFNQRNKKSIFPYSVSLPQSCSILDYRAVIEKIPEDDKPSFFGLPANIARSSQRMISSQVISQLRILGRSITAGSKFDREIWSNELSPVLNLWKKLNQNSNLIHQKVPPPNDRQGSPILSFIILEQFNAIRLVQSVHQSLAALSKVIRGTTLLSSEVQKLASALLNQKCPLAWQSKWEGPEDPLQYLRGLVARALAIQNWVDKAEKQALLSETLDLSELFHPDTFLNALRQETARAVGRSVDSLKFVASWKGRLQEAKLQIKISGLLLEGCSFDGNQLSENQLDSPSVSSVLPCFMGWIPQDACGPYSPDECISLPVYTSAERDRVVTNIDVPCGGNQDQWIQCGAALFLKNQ

SMILES	Reversibility of inhibition of dynein-2-dependent motility after washout (5 µM 8, then washout, 1 mM ATP)	Velocity of dynein-2-driven microtubule gliding [nm/s]	IC50 [µM]
N#Cc1c(C2(c3ccc(Cl)cc3)CC2)nn2c1[nH]c(=O)c1cc(I)ccc12 [Compound 8, 2-[1-(4-chlorophenyl)cyclopropyl]-7-iodo-5-oxo-4H-pyrazolo[1,5-a]quinazoline-3-carbonitrile]	reversed following washout	6 ± 2	2.6 ± 1.3
N#C/C(C(=O)c1ccc(Cl)cc1Cl)=C1\NC(=O)c2ccc(Cl)cc2N1 [ciliobrevin D, reference compound]	–	83 ± 10	20
